{"source": "paper PMC7032088", "about": "(Asian Journal of Pharmaceutical Sciences, 2017)", "system": "A549 cells", "experiment": "Cell viability", "details": "24 h, 0.0005–0.1 mg/ml"}
{"smiles": "CC(C(=O)O)c1cccc(C(=O)c2ccccc2)c1", "note": "(stereo not shown) [Free KTP, Ketoprofen]", "values": [{"measurement": "in vitro cytotoxicity (MTT)", "result": "did not show significant cytotoxicity"}]}
